Where two headings read alike, the source gives them in different places.

Data set [1] has as its system carrageenan pleurisy (3 hour pleural exudate volume). In words: Carrageenan Pleurisy Assay (CPA), acute anti-inflammatory activity, oral dosing. Type of data set: in vivo. Particulars: for ED50: po, dose reducing the 3 hour exudate volume by 50%, p.o., 5 animals per group, read-out: ED50 3 hr. vol. p.o. The procedure: Following the procedure previously described by Vinegar et al. in Proc. Soc. Exp. Biol. Med., 143, 711, (1973) as recently modified /Vinegar et al., Eur. J. Rheum. Inflamm., 1, 204 (1978)/ the acute anti-inflammatory activity of 3-deazaadenosine was compared with that of known anti-inflammatory drugs. The average 3 hour exudate volume for each drug treated group was determined and the % inhibition relative to solvent-fed control animals calculated, the ED 50 (mg/kg body weight) being the dose required to reduce the 3 hour exudate volume by 50%. There were 5 animals in each drug-treated group and the control group.
By means of the Carrageenan Pleurisy Assay of Example 1 the duration of action of the tests compounds after a single oral pretreating dose was determined. For 3-deazaadenosine the effect lasted for 14.9 hours at 6 mg/kg (p.o.) whilst for aspirin (150 mg/kg p.o.) and acetaminophen (220 mg/kg p.o.) the effect lasted for […] and 2 hours respectively. This value represents the time (hours) of drug administration prior to the injection of carrageenan in which the inhibition of the 3 hour pleural exudate volume declined to 40%.

For data set [2], the system named is immune response. Particulars: earlier disclosed activity (UK Patent Application No. 40447/78); cited from earlier work.
Data set [3] in a line: Water solubility. Type of data set: physicochemical.
Data set [4] deals with liver. In words: Liver damage in animal models. It counts as in vivo. Particulars: animal models used.
Data set [5] concerns cyclooxygenase. The experiment in a line: Prostaglandin metabolism in vitro, cyclooxygenase pathway. It counts as biochemical.
The test system of data set [6] is carrageenan pleurisy (3 hr. exudate volume). The experiment in a line: Carrageenan Pleurisy Assay (CPA), local (intra-pleural) anti-inflammatory activity. It counts as in vivo. Particulars: read-out: ED50 3 hr. vol. local (intra-pleural). An excerpt: Following the procedure described by Vinegar et al. /Eur. J. Rheum. […] There were 5 animals in each drug-treated group and the control group.

Data set [7] concerns adjuvant arthritis. In words: Adjuvant arthritis, developing and established, arthritic joint scores. Type of data set: in vivo. As to conditions: Rattus norvegicus, rats; for ED25: feed or water, 1008 h, drug in diet from day 21 to 42; for ED50: po, 384 h, drug in diet from day 1 to day 16. Here is the method: The effect of 3-deazaadenosine in rats againt both developing and established adjuvant arthritis was determined by the method described by R. Vinegar et al. Journal of Immunopharmacology. 1, 483, (I979). The scoring procedure of A.L.F. Currey and M. Ziff, J. Exp. Med., 121, 185 (1968) was used to assess the arthritic joint scores of rats. There were 5 animals in each drug-treated group. For developing adjuvant arthritis the drugs were administered in the diet from day 1 to day 16. For established adjuvant arthritis the drugs were administered from day 21 to 42.

Data set [8] deals with lipoxygenase. In words: Prostaglandin metabolism in vitro, lipoxygenase pathway. Type of data set: biochemical.
The nature of data set [9]: Analgesic activity. It counts as in vivo. As to conditions: per se.
For data set [10] the following is noted: earlier disclosed activity (US Patent No. 4 148 888); cited from earlier work.
Data set [11] can be described thus: Therapeutic index. Particulars: in vivo.
Data set [12] in a line: Half life. Particulars: in vivo.
Data set [13] can be described thus: Antipyretic activity. Particulars: in vivo.

Regarding `Nc1nccc2c1ncn2[C@@H]1O[C@H](CO)[C@@H](O)[C@H]1O` [3-Deazaadenosine, 4-amino-1-β-D-ribofuranosyl-1H-imidazo-[4,5-c]-pyridine], the duration of action entry in data set [1] (general statement in the description, no dose given) was “about 15 hours”; in data set [1] (single oral pretreating dose 6 mg/kg (p.o.), time before carrageenan at which inhibition of 3 hour pleural exudate volume declined to 40%) it was 14.9 h. The ED50 in [1] came to 2.8 ± 0.65 mg/kg; in data set [6] (local (intra-pleural) administration, 5 animals per group), 0.05 mg/kg; in data set [7], 8 ± 2.8 mg/kg. The “dose required for immunesuppression” value in data set [2] is given as “more than 30 mg/kg”. The water solubility result in data set [3] is listed as “high water solubility”. Also, the liver damage entry in data set [4] was “does not cause liver damage”. Further, in [5], the “inhibition of prostaglandin metabolism, cyclooxygenase pathway” value is reported as “does not inhibit”. The ED25 in data set [7] was approximately 18 mg/kg/day. In addition, in [8], the “inhibition of prostaglandin metabolism, lipoxygenase pathway” value is “does not inhibit”. Besides, the analgesic activity result in [9] is “no analgesic activity”. The “dose required for antiviral activity” value in data set [10] is 100-200 mg/kg per day. Further, in data set [11], the therapeutic index entry is given as “high therapeutic index”. In addition, the half life entry in data set [12] is “short half life”. Also, in data set [13], the antipyretic activity result is on record as “not antipyretic”.
Consider `CC(=O)Oc1ccccc1C(=O)O` [Aspirin], for which the ED50 in [1] amounted to 28 ± 3.2 mg/kg; in [6], 0.04 mg/kg; in data set [7], 150 ± 53.1 mg/kg. Further, the duration of action in data set [1] (single oral pretreating dose 150 mg/kg p.o., time before carrageenan at which inhibition of 3 hour pleural exudate volume declined to 40%) was 35 h. In data set [7], the ED25 was 150 mg/kg/day.
Turning to `C[C@]12CCC(=O)C=C1CC[C@@H]1[C@@H]2[C@@H](O)C[C@@]2(C)[C@H]1CC[C@]2(O)C(=O)CO` [Hydrocortisone], the ED50 in data set [1] is 14 ± 10.2 mg/kg; in data set [6], 0.1 mg/kg.
With `C[C@]12C=CC(=O)C=C1CC[C@@H]1[C@@H]2[C@@H](O)C[C@@]2(C)[C@H]1CC[C@]2(O)C(=O)CO` [Prednisolone], the ED50 in data set [1] was determined as 3 ± 0.5 mg/kg. Besides, in data set [7], the ED25 was 0.2 mg/kg/day and the ED50 was 1 ± 0.7 mg/kg.
In the case of `CC(=O)Nc1ccc(O)cc1` [acetaminophen], in data set [1] (single oral pretreating dose 220 mg/kg p.o., time before carrageenan at which inhibition of 3 hour pleural exudate volume declined to 40%), the duration of action is 2 h.

(Values after patent EP0038567A1, “Deazapurine nucleoside, formulations thereof, and use thereof in therapy” (THE WELLCOME FOUNDATION LIMITED, priority 1980, dated 1981).)
